Reference: ChEMBL document CHEMBL4017490, “Design, Synthesis, and Pharmacological Evaluation of Novel Multisubstituted Pyridin-3-amine Derivatives as Multitargeted Protein Kinase Inhibitors for the Treatment of Non-Small Cell Lung Cancer” (J Med Chem, 2017)

Experiments:
[1] = molecular target: Proto-oncogene tyrosine-protein kinase Src (Homo sapiens, UniProt P12931); experiment: Inhibition of recombinant c-Src (unknown origin) using poly (Glu,Tyr) 4:1 as substrate after 60 mins by ELISA
[2] = molecular target: Cyclin-dependent kinase 4 (Homo sapiens, UniProt P11802); experiment: Inhibition of CDK4 (unknown origin) by FRET assay
[3] = molecular target: Cyclin-dependent kinase 1 (Homo sapiens, UniProt P06493); experiment: Inhibition of CDK1 (unknown origin) by FRET assay
Chain of Cyclin-dependent kinase 1 (P06493 whole entry): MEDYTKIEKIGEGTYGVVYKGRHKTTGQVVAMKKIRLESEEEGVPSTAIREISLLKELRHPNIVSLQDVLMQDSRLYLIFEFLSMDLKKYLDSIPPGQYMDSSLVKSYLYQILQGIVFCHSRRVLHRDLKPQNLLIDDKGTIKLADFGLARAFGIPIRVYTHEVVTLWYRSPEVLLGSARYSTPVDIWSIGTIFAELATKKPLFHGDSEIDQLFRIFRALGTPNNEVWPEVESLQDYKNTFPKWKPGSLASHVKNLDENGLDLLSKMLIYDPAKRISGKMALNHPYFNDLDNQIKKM

[4] = molecular target: Platelet-derived growth factor receptor beta (Homo sapiens, UniProt P09619); experiment: Inhibition of recombinant PDGFR-beta (unknown origin) using poly (Glu,Tyr) 4:1 as substrate after 60 mins by ELISA
[5] = molecular target: ALK tyrosine kinase receptor (Homo sapiens, UniProt Q9UM73)
Description: Inhibition of recombinant ALK (unknown origin) using poly (Glu,Tyr) 4:1 as substrate after 60 mins by ELISA

[6] = molecular target: Proto-oncogene tyrosine-protein kinase receptor Ret (Homo sapiens, UniProt P07949); experiment: Inhibition of recombinant Ret (unknown origin) using poly (Glu,Tyr) 4:1 as substrate after 60 mins by ELISA
[7] = molecular target: Receptor tyrosine-protein kinase erbB-4 (Homo sapiens, UniProt Q15303); experiment: Inhibition of recombinant ErbB4 (unknown origin) using poly (Glu,Tyr) 4:1 as substrate after 60 mins by ELISA
[8] = molecular target: Fibroblast growth factor receptor 1 (Homo sapiens, UniProt P11362); experiment: Inhibition of recombinant human FGFR1 using poly (Glu,Tyr) 4:1 as substrate after 60 mins by ELISA
Chain of Fibroblast growth factor receptor 1 (P11362 whole entry): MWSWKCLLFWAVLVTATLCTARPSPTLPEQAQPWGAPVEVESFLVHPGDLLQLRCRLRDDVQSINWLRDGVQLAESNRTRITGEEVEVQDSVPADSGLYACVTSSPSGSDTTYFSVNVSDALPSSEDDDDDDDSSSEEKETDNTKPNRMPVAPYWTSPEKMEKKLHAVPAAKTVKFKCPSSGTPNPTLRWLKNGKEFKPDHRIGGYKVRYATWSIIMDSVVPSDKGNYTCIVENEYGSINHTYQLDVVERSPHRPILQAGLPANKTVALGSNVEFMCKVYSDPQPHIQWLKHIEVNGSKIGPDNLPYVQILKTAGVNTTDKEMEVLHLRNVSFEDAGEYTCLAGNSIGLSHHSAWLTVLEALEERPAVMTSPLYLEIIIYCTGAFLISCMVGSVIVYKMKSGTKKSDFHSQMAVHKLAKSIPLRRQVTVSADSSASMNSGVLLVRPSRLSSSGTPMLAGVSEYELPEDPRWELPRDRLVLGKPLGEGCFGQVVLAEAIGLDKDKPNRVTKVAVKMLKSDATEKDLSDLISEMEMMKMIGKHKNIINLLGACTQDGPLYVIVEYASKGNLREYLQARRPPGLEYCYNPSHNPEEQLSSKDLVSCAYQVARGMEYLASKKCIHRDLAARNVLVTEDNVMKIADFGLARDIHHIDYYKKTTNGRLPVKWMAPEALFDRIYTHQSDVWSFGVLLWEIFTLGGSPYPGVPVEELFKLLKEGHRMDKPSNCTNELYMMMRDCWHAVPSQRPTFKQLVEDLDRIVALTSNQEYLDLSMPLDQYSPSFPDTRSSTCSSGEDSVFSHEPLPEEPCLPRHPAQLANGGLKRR

[9] = molecular target: Fibroblast growth factor receptor 2 (Homo sapiens, UniProt P21802)
Description: Inhibition of recombinant human FGFR2 using poly (Glu,Tyr) 4:1 as substrate after 60 mins by ELISA

[10] = molecular target: Cyclin-dependent kinase 6 (Homo sapiens, UniProt Q00534); experiment: Inhibition of CDK6 (unknown origin) by FRET assay
Chain of Cyclin-dependent kinase 6 (Q00534 whole entry): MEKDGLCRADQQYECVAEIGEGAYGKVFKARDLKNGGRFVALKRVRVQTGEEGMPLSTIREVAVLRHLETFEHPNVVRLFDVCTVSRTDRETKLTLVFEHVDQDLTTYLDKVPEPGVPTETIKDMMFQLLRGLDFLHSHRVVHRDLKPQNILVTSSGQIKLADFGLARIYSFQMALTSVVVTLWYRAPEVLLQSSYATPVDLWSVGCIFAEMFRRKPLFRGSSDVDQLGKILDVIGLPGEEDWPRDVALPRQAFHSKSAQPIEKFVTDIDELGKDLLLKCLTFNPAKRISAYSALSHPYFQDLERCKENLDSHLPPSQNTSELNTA

[11] = molecular target: Mast/stem cell growth factor receptor Kit (Homo sapiens, UniProt P10721); experiment: Inhibition of recombinant c-Kit (unknown origin) using poly (Glu,Tyr) 4:1 as substrate after 60 mins by ELISA
[12] = molecular target: Hepatocyte growth factor receptor (Homo sapiens, UniProt P08581); experiment: Inhibition of recombinant c-Met (unknown origin) using poly (Glu,Tyr) 4:1 as substrate after 60 mins by ELISA
[13] = molecular target: Proto-oncogene tyrosine-protein kinase ROS (Homo sapiens, UniProt P08922); experiment: Inhibition of recombinant ROS1 (unknown origin) using poly (Glu,Tyr) 4:1 as substrate after 60 mins by ELISA
[14] = molecular target: Receptor tyrosine-protein kinase erbB-2 (Homo sapiens, UniProt P04626); experiment: Inhibition of recombinant ErbB2 (unknown origin) using poly (Glu,Tyr) 4:1 as substrate after 60 mins by ELISA
[15] = molecular target: Leukocyte tyrosine kinase receptor (Homo sapiens, UniProt P29376); experiment: Inhibition of recombinant LTK (unknown origin) using poly (Glu,Tyr) 4:1 as substrate after 60 mins by ELISA
[16] = molecular target: Mitogen-activated protein kinase 1 (Homo sapiens, UniProt P28482); experiment: Inhibition of Erk2 (unknown origin) by FRET assay
[17] = molecular target: Epidermal growth factor receptor (Homo sapiens, UniProt P00533)
Chain of Epidermal growth factor receptor (Homo sapiens, UniProt P00533) (P00533 whole entry): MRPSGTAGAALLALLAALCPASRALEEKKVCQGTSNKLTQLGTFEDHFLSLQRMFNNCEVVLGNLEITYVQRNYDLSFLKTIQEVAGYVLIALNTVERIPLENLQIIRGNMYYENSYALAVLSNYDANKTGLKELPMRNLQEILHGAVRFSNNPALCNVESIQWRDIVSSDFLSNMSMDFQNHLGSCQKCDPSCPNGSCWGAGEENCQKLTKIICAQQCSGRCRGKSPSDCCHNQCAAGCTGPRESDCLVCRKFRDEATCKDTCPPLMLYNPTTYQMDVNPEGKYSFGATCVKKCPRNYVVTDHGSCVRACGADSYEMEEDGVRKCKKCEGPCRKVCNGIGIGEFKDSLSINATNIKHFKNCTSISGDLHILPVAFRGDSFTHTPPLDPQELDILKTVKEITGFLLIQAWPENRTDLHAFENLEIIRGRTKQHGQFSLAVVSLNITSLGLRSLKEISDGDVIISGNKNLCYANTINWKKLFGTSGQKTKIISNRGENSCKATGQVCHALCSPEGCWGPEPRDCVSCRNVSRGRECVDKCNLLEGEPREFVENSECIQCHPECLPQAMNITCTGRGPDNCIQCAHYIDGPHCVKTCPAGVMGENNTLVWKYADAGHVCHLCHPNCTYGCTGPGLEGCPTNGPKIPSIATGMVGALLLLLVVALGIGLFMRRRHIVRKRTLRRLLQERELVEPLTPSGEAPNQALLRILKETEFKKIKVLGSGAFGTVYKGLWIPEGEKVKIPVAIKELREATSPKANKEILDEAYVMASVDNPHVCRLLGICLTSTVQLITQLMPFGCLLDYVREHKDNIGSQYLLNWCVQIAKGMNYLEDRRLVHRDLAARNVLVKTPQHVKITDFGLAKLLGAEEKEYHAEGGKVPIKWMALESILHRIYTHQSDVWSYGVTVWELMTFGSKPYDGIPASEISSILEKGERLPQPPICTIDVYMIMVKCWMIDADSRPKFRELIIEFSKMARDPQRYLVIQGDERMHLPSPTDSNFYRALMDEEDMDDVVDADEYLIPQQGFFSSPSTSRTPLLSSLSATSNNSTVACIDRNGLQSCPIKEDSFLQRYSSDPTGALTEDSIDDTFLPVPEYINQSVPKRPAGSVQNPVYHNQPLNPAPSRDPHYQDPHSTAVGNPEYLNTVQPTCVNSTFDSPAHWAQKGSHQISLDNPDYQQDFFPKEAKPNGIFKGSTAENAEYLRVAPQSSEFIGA
Description: Inhibition of recombinant EGFR (unknown origin) using poly (Glu,Tyr) 4:1 as substrate after 60 mins by ELISA

[18] = molecular target: Platelet-derived growth factor receptor alpha (Homo sapiens, UniProt P16234); experiment: Inhibition of recombinant PDGFR-alpha (unknown origin) using poly (Glu,Tyr) 4:1 as substrate after 60 mins by ELISA
Chain of Platelet-derived growth factor receptor alpha (P16234 whole entry): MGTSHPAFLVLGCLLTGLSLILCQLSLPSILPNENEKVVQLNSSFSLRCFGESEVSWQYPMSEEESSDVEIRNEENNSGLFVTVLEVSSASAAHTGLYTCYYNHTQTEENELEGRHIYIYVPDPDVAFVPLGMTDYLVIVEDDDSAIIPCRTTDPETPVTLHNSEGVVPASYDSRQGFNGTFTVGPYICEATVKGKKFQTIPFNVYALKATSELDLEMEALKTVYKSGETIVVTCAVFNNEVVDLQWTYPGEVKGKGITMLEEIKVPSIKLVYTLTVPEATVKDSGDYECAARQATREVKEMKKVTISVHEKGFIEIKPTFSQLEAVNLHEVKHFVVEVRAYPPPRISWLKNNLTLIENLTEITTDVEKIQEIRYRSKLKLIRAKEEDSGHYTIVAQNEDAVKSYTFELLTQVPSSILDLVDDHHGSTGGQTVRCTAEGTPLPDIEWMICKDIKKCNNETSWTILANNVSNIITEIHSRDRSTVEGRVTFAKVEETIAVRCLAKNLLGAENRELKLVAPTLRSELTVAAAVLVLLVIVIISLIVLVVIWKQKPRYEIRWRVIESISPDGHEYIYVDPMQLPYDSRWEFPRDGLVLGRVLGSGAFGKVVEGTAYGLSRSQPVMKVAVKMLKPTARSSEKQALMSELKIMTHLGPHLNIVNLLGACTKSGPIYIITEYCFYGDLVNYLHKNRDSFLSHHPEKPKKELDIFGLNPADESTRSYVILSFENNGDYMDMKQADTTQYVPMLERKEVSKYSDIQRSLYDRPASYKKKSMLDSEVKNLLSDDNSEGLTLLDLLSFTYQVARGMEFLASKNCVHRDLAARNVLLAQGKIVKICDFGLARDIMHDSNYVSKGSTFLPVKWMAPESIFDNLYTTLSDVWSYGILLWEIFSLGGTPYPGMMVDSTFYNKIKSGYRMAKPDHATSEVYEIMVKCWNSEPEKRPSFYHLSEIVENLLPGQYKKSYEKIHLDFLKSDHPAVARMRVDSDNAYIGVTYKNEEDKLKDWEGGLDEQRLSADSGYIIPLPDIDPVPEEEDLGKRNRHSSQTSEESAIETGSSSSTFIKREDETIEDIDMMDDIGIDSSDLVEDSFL

[19] = molecular target: T1, Tyrosine-protein kinase receptor UFO (Homo sapiens, UniProt P30530); experiment: Inhibition of recombinant AXL (unknown origin) using poly (Glu,Tyr) 4:1 as substrate after 60 mins by ELISA
T1 sequence (P30530 whole entry): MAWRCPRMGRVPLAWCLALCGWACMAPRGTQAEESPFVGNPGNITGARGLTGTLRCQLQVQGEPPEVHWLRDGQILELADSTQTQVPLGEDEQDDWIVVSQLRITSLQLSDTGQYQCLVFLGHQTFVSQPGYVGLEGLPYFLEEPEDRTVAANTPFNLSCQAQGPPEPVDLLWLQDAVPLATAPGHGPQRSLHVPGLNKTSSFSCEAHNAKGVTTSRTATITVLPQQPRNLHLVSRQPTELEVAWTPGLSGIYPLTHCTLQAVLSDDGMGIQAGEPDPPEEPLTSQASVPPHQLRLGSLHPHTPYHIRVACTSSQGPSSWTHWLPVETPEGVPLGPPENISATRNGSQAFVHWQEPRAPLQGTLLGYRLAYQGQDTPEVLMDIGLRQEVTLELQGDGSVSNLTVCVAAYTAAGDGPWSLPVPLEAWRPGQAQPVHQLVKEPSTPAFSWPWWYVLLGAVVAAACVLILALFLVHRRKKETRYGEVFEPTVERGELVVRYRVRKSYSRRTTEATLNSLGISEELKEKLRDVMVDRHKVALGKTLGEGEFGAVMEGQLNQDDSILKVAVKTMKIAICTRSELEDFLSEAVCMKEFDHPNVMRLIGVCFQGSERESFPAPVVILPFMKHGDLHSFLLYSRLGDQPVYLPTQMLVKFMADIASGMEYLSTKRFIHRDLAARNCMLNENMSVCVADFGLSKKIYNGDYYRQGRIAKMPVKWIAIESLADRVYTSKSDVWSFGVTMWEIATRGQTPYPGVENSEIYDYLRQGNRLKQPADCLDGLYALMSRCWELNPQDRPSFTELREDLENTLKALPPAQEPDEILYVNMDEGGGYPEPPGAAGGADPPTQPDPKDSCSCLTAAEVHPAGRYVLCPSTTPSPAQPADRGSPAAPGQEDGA

[20] = molecular target: Vascular endothelial growth factor receptor 1 (Homo sapiens, UniProt P17948); experiment: Inhibition of recombinant VEGFR-1 (unknown origin) using poly (Glu,Tyr) 4:1 as substrate after 60 mins by ELISA
[21] = molecular target: Fibroblast growth factor receptor 4 (Homo sapiens, UniProt P22455); experiment: Inhibition of recombinant human FGFR4 using poly (Glu,Tyr) 4:1 as substrate after 60 mins by ELISA
[22] = molecular target: Epidermal growth factor receptor (Homo sapiens, UniProt P00533, L858R/T790M); experiment: Inhibition of recombinant EGFR T790M/L858R mutant (unknown origin) using poly (Glu,Tyr) 4:1 as substrate after 60 mins by ELISA
Chain of Epidermal growth factor receptor (Homo sapiens, UniProt P00533, L858R/T790M) (P00533 25-1210 T790M/L858R limits assumed): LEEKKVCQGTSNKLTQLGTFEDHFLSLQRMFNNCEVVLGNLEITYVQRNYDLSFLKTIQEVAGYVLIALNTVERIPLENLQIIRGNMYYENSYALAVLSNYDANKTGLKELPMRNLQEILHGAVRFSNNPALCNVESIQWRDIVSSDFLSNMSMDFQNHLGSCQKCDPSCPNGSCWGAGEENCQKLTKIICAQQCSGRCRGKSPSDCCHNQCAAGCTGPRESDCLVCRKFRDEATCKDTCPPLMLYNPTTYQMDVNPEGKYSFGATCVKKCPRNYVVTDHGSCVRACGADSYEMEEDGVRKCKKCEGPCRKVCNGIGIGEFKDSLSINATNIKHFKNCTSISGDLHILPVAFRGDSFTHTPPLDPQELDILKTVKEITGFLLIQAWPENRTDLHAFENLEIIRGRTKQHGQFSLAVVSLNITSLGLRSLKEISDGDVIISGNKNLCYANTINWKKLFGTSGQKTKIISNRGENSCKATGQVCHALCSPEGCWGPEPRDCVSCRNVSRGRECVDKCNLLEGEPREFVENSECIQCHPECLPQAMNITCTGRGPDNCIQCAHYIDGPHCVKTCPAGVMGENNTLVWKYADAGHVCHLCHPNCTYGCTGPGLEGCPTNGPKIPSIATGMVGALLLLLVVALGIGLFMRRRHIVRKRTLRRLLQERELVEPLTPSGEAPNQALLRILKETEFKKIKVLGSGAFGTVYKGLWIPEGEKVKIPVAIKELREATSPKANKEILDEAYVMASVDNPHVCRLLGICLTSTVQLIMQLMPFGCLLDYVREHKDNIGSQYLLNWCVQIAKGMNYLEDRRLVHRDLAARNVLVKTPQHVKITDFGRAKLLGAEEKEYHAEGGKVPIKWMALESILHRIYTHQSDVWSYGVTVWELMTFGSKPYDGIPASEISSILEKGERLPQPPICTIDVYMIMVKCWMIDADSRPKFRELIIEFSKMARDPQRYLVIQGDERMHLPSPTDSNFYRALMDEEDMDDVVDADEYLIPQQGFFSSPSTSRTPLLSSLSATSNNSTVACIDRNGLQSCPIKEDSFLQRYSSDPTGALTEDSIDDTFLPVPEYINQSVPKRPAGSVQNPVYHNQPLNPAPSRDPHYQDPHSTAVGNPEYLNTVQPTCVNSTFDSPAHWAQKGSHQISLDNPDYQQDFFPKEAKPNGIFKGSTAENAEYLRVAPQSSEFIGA

[23] = molecular target: Insulin-like growth factor 1 receptor (Homo sapiens, UniProt P08069); experiment: Inhibition of recombinant IGF1R (unknown origin) using poly (Glu,Tyr) 4:1 as substrate after 60 mins by ELISA
Insulin receptor = Insulin receptor (Homo sapiens, UniProt P06213); experiment: Inhibition of recombinant IR (unknown origin) using poly (Glu,Tyr) 4:1 as substrate after 60 mins by ELISA
[24] = molecular target: Tyrosine-protein kinase ABL1 (Homo sapiens, UniProt P00519)
Description: Inhibition of recombinant ABL (unknown origin) using poly (Glu,Tyr) 4:1 as substrate after 60 mins by ELISA

## Cc1n[nH]c2ccc(-c3cc(N[C@@H](CO)c4ccccc4)cnc3-c3cc(Cl)ccc3O)cc12
[1]
  IC50: 3.9 nM
[2]
  IC50: > 1000 nM
[3]
  IC50: > 1000 nM
[4]
  IC50: > 100 nM
[5]
  IC50: 231 nM
[6]
  IC50: 0.7 nM
[7]
  IC50: 5.3 nM
[8]
  IC50: 55.8 nM
[9]
  IC50: 8.6 nM
[10]
  IC50: > 1000 nM
[11]
  IC50: > 10 nM
[12]
  IC50: > 1000 nM
[13]
  IC50: 273 nM
[14]
  IC50: 1 to 10 nM
[15]
  IC50: 300 nM
[16]
  IC50: 960 nM
[17]
  IC50: 3.1 nM
[18]
  IC50: > 100 nM
[19]
  IC50: > 1000 nM
[20]
  IC50: > 10 nM
[21]
  IC50: 61.7 nM
[22]
  IC50: 8.6 nM
[23]
  IC50: > 100 nM
Insulin receptor
  IC50: 91.6 nM
[24]
  IC50: 6.6 nM

## Cc1n[nH]c2ccc(-c3cc(N[C@@H](CO)c4ccccc4)cnc3-c3ccc(F)cc3O)cc12
[1]
  IC50: 6 nM
[2]
  IC50: > 1000 nM
[3]
  IC50: > 1000 nM
[4]
  IC50: 1 to 10 nM
[5]
  IC50: 155 nM
[6]
  IC50: 0.4 nM
[7]
  IC50: 2.4 nM
[8]
  IC50: 25.2 nM
[9]
  IC50: 4.7 nM
[10]
  IC50: > 1000 nM
[11]
  IC50: > 10 nM
[12]
  IC50: > 1000 nM
[13]
  IC50: > 1000 nM
[14]
  IC50: 1 to 10 nM
[15]
  IC50: 68.5 nM
[16]
  IC50: > 1000 nM
[17]
  IC50: 8.1 nM
[18]
  IC50: > 100 nM
[19]
  IC50: > 1000 nM
[20]
  IC50: > 10 nM
[21]
  IC50: 93.3 nM
[22]
  IC50: 1.3 nM
[23]
  IC50: > 1000 nM
Insulin receptor
  IC50: 888 nM
[24]
  IC50: 6.1 nM

## Cc1n[nH]c2ccc(-c3cc(N[C@@H](CO)c4ccccc4)cnc3-c3cc(F)ccc3O)cc12
[1]
  IC50: 5.7 nM
[2]
  IC50: > 1000 nM
[3]
  IC50: > 1000 nM
[4]
  IC50: > 10 nM
[5]
  IC50: 101 nM
[6]
  IC50: 0.2 nM
[7]
  IC50: 6.2 nM
[8]
  IC50: 18 nM
[9]
  IC50: 1.6 nM
[10]
  IC50: > 1000 nM
[11]
  IC50: > 10 nM
[12]
  IC50: > 1000 nM
[13]
  IC50: > 1000 nM
[14]
  IC50: > 10 nM
[15]
  IC50: 123 nM
[16]
  IC50: 575 nM
[17]
  IC50: 4.7 nM
[18]
  IC50: > 100 nM
[19]
  IC50: > 1000 nM
[20]
  IC50: 1 to 10 nM
[21]
  IC50: 299 nM
[22]
  IC50: 6 nM
[23]
  IC50: > 1000 nM
Insulin receptor
  IC50: 417 nM
[24]
  IC50: 2.9 nM

## OC[C@H](Nc1cnc(-c2cc(Cl)ccc2O)c(-c2ccc3cnccc3c2)c1)c1ccccc1
[1]
  IC50: 6.4 nM
[2]
  IC50: > 1000 nM
[3]
  IC50: > 1000 nM
[4]
  IC50: 1 to 10 nM
[5]
  IC50: 93.9 nM
[6]
  IC50: 0.04 nM
[7]
  IC50: 5 nM
[8]
  IC50: 16.1 nM
[9]
  IC50: 2 nM
[10]
  IC50: > 1000 nM
[11]
  IC50: > 10 nM
[12]
  IC50: 196 nM
[13]
  IC50: 168 nM
[14]
  IC50: 1 to 10 nM
[15]
  IC50: 45.3 nM
[16]
  IC50: 196 nM
[17]
  IC50: 4.2 nM
[18]
  IC50: > 100 nM
[19]
  IC50: > 1000 nM
[20]
  IC50: > 10 nM
[21]
  IC50: 7.4 nM
[22]
  IC50: 1.9 nM
[23]
  IC50: > 1000 nM
Insulin receptor
  IC50: 431 nM
[24]
  IC50: 4.3 nM
